Tests used:
[1] = parameters: method as in Xu et al. (2016) and Jiang et al. (2008); conditions: 6G after oral administration in rats; ref Xu et al. (2016) and Jiang et al. (2008); cited from earlier work
[2] = Tissue distribution after single oral administration (30 mg/kg); format: in vivo; conditions: 1–2 h after oral 30 mg/kg
Experimental: Tissue distribution analysis was carried out after a 7-week washout period following the completion of the pharmacokinetic study. The animals received a single oral administration of either 6G, 6S, zingerone, or vehicle at a dosage of 30 mg/kg. Euthanasia was performed using an overdose of isoflurane (>10%) in an induction chamber, either one or 2 h after oral gavage (3 rats/timepoint), and death was confirmed by exsanguination. Subsequently, the stomach, small intestine, liver, large intestine, kidneys, heart, lung, hippocampus, cortex, spleen, ovaries, and spinal cord were collected. The dissected organs were thoroughly cleaned with a cold normal saline solution and the connective tissue was removed. The organs were then precisely weighed before being stored at −40 °C. All processes during tissue collection were performed on ice.
Urine samples were centrifuged, and 50 µL of urine was extracted with 200 µL of 100% methanol. The mixture was vortexed for 10 min and subsequently centrifuged at 14,000 × g at 4 °C for 10 min. Feces and organs were weighed and homogenized with methanol (50:50% w/v). The supernatants of the extracted urine, feces, and organs were also filtered through a […] PVDF membrane (Chrome Tech, MN, USA) before analysis.
Plasma concentration-time profiles were plotted using GraphPad Prism 9.3.0 (GraphPad Software, USA). The absolute oral bioavailability was calculated as follows: F = (AUC p.o./dose p.o.)/(AUC i.v./dose i.v.). The percentage recovery of each administered compound was calculated as the total amount of the drug found in urine or feces divided by the administered dose. The tissue-to-plasma concentration ratios (K p) were calculated by dividing the concentration in the tissue by the corresponding plasma concentration at the respective sampling time point.

[3] = Pharmacokinetics after single intravenous administration (3 mg/kg), plasma LC-MS/MS; format: in vivo, Female Sprague Dawley rats; conditions: female, Sprague-Dawley, rat, iv, plasma analyte after zingerone i.v. 3 mg/kg, mean ± SD n=6
Experimental: This study is composed of two sections; the first section involves an investigation of the interconversion pharmacokinetics of the pure compounds, and the second focuses on tissue distribution. All rats were transferred to metabolic cages and fasted overnight for at least 10 h. The animals were then randomly divided into four groups (6 rats/group) to receive a single intravenous (i.v.) administration of either 6G, 6S, zingerone, or vehicle via the lateral tail vein at a dosage of 3 mg/kg. After a 7-week washout period, the rats received 30 mg/kg of the same test compounds through a single oral (p.o.) administration. Following each administration, blood samples (300 µL) were collected in heparinized tubes from the lateral tail vein (while rats were under anesthesia with isoflurane) at specified time points: 0.083, 0.25, 0.5, 1, 1.5, 2, 3, 4, 6, 8, and 24 h after administration. An additional 1 mL of blood sample was collected from each rat at pre-dose (0 h) and post-dose (24 h) for clinical laboratory testing and safety evaluation. All heparinized blood samples were initially centrifuged at 5,000 × g, 4 °C, for 10 min. Subsequently, the plasma was carefully transferred to a cryotube as an aliquot sample and then stored at −40 °C until analysis. Urine and feces were collected during the intervals of 0–24 h and 24–48 h post-dosing, and their weights and volumes were documented. All collected urine and feces samples were stored at −40 °C until analysis. Plasma samples were processed through protein precipitation. In brief, 50 µL of plasma was mixed with 200 µL of methanol containing 50 ng/mL of IS (dihydrocapsaicin). The mixtures were vortexed and centrifuged at 14,000 × g at 4 °C for 10 min. The supernatant was filtered through a […] PVDF membrane (Chrome Tech, MN, USA) before analysis. Investigation of glucuronide conjugations followed a previously published method with some modification ([Wang et al., 2017]; [Songvut et al., 2023]). A 50 μL aliquot of plasma, urine, or feces sample was incubated at 37 °C for a minimum of 30 min with 50 μL of β-glucuronidase (3,000 U/mL) in a sodium phosphate buffer (pH 6.8). For sample extraction, 150 μL of methanol containing 50 μg/L of IS was pipetted into the pre-incubated samples. Subsequently, the mixtures were vortexed for 10 min and then centrifuged at 14,000 × g at 4 °C for 10 min. The supernatants were filtered through a […] PVDF membrane (Chrome Tech, MN, United States) and then analyzed using the validated LC-MS/MS method. Quantitative analysis was conducted using liquid chromatography-tandem mass spectrometry (LC-MS/MS) with a Nexera X2 LCMS-8060NX instrument (Shimadzu, Japan). The instrument included a CBM-40lite system controller, CTO-40C column oven, SIL-40C XR autosampler, LC-40D XR solvent pump unit, FCV-DGU-403 degasser, and 20AH2 switching valve. The LC-MS/MS system was operated with a binary pump and equipped with a triple quadrupole mass spectrometer. Pharmacokinetic parameters were assessed using PK Solutions software (version 2.0) with non-compartmental analysis. The AUC was calculated using the Linear-Log Trapezoidal Method. The maximum plasma concentration (Cmax) and time to reach maximum plasma concentration (Tmax) were taken directly from the graph.

For `CCCCC[C@H](O)CC(=O)CCc1ccc(O)c(OC)c1` [[6]-gingerol], the Tmax [1] is given as 10 min.
In the case of `CCCCC/C=C/C(=O)CCc1ccc(O)c(OC)c1` [[6]-shogaol], the “distribution to brain regions (hippocampus and cortex)” value [2] was “lacking presence in key brain regions”.
In the case of `COc1cc(CCC(C)=O)ccc1O` [zingerone, 4-(4-hydroxy-3-methoxyphenyl)-2-butanone], the “distribution to brain regions (hippocampus and cortex)” value [2] was “higher concentrations”, the “tissue-to-plasma ratios (rank among compounds)” value [2] was “highest” and the AUC(0-inf) [3] was 12600 ng·h/mL. It also gave a C0 [3] of 35100 ng/mL and an AUC(0-t) ([3]; read-out: AUC(0-t)) of 12600 ng·h/mL.

— publication PMC11187260, “Unraveling the interconversion pharmacokinetics and oral bioavailability of the major ginger constituents: [6]-gingerol, [6]-shogaol, and zingerone after single-dose administration in rats” (Frontiers in Pharmacology, 2024)
